Test results from PubChem BioAssay AID602415 (The Scripps Research Institute Molecular Screening Center, 2012).
Active and inactive are the calls of the source.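 The calls were made as follows: active = substrate turnover at or below 60%; inactive = substrate turnover above 60%.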

The compounds below were run against Diacylglycerol lipase-beta (Mus musculus) (UniProt Q91WC9) (assay: DAGLb inhibitors reducing SAG hydrolysis, biochemical, LC-MS, overexpressed mouse DAGLb (AID 602415)). Conditions: HEK293T membranes overexpressing mDAGLb, at 10 µM, active compounds read low.
Sequence of Diacylglycerol lipase-beta (Mus musculus) (Q91WC9 whole entry, looked up): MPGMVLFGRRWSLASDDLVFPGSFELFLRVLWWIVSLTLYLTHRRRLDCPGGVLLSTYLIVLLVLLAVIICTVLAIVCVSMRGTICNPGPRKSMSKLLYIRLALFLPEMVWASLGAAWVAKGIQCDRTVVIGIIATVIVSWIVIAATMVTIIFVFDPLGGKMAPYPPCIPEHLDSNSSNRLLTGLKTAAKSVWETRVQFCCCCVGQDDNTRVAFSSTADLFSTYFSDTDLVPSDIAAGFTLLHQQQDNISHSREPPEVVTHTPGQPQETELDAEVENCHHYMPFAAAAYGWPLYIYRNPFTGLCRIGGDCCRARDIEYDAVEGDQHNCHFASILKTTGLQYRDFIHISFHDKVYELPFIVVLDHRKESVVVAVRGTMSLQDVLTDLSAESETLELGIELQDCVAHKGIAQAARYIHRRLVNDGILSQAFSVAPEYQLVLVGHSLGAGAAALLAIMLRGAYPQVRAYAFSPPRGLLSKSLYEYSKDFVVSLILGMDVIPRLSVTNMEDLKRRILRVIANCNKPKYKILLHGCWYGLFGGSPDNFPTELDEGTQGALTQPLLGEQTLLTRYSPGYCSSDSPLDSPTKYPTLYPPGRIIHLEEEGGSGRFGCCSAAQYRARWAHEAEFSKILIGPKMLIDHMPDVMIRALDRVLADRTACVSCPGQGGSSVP

SMILES	substrate turnover
CC1CC(C)CN(C(=O)c2ccc3c(c2NCCO)C(=O)c2ccccc2C3=O)C1 (stereo unspecified)	78% (inactive)
CC1=NN(c2ccccc2)C(=O)/C1=C\C=C1/N(C)c2ccccc2C1(C)C	74% (inactive)
O=C(O)COc1ccccc1C=NNc1ccc(S(=O)(=O)Nc2ccc(Cl)cc2)cc1[N+](=O)[O-]	50%
O=C(NNc1c2ccccc2nc2ccccc12)c1cc2ccccc2cc1O	65% (inactive)
COc1ccc(S(=O)(=O)N2CCOCC2)cc1N=Nc1sc(N)nc1-c1ccccc1	97% (inactive)
O=C(NNc1c2ccccc2nc2ccccc12)c1ccc(O)cc1O	79% (inactive)
CC1=NN(c2ccccc2)C(=O)C1N=Nc1ccc(N)cc1 (stereo unspecified)	65% (inactive)
COc1cccc(C(=O)NNc2c3ccccc3nc3ccccc23)c1	71% (inactive)
CCN(CCCNc1cc2c(c(N)c1S(=O)(=O)O)C(=O)c1ccccc1C2=O)c1ccccc1	80% (inactive)
Cc1ccc(C)c(NC(=O)/C(C#N)=C/c2cn(CC(=O)NCc3ccco3)c3ccccc23)c1	93% (inactive)
Nc1ccc(N=Nc2ccccc2)c2cccnc12	88% (inactive)
COc1cc(/C=C2/C(=O)NN(c3ccc(C)c(Cl)c3)C2=O)cc([N+](=O)[O-])c1O	43%
Cc1ccc(NC2=C(Cl)C(=O)OC2OC(=O)c2ccco2)cc1C (stereo unspecified)	39%
Cn1cc(/C=C2\SC(=O)NC2=S)c2ccccc21	61% (inactive)
c1ccc(N=NC2=NN(c3ccccc3)CS2)cc1	61% (inactive)
Nc1nc(-c2ccccc2)c(N=Nc2cccnc2)s1	53%
NC(=O)CC(NC(=O)c1ccc(Br)cc1)c1ccc(NCCc2ccc(F)cc2)c([N+](=O)[O-])c1 (stereo unspecified)	70% (inactive)
Nc1nc(-c2ccccc2)c(N=Nc2ccc(Cl)cc2)s1	23%
Cc1cc(N=Nc2ccccc2)c(NCC(O)C(O)C(O)CO)cc1C (stereo unspecified)	69% (inactive)
O=C1c2cccc(Cl)c2C(=O)c2c1cccc2N1CCCC1	52%
O=C1S/C(=C\c2ccc(O)c([N+](=O)[O-])c2)C(=O)N1c1ccccc1Cl	76% (inactive)
COc1ccc(C=NNc2ccc(C(F)(F)F)cc2[N+](=O)[O-])cc1O	76% (inactive)

SMILES	substrate turnover
Cc1cc(N=Nc2ccccc2C(=O)O)c(C)c(C)c1O	89% (inactive)
CCOc1ccccc1N1CCN(C2=C(NS(=O)(=O)c3cccs3)C(=O)c3ccccc3C2=O)CC1	79% (inactive)
COc1ccc(N/C=C2\C(=O)CCc3c2oc2cc(Cl)c(O)c(Cl)c32)cc1	16%
O=C(NC(C(=O)NN=Cc1c2ccccc2cc2ccccc12)c1n[nH]c(=O)c2ccccc12)c1ccccc1 (stereo unspecified)	64% (inactive)
CCOc1cc(/C=C2\N=C(SCC)SC2=O)cc([N+](=O)[O-])c1OC(C)=O	78% (inactive)
CC(=O)Nc1ccc(/C=N/Nc2ccc(S(=O)(=O)Nc3ccccc3C(=O)O)cc2[N+](=O)[O-])cc1	84% (inactive)
CN(C)c1ccc(N=Nc2ccc(S(N)(=O)=O)cc2)cc1	59%
CN(C)c1ccc(N=Nc2ccccc2C(=O)OCC(=O)NCC2CCCCC2)cc1	79% (inactive)
O=[N+]([O-])c1ccc(C=NNc2ccc3ccccc3c2)o1	67% (inactive)
CCN(Cc1ccccc1)c1ccc(N=Nc2nn(C)c(C)c2[N+](=O)[O-])cc1	97% (inactive)
Cc1ccc(C2C(/C=C3/SC(=S)NC3=O)=C(c3cccs3)Oc3ccccc32)cc1 (stereo unspecified)	35%
O=C1C(NS(=O)(=O)c2cccs2)=C(N2CCN(c3cccc(Cl)c3)CC2)C(=O)c2ccccc21	81% (inactive)
O=[N+]([O-])c1ccc(N2CCN(c3ccccc3)CC2)cc1	91% (inactive)
CCCN1C(=O)/C(=C2/C=Cc3ccccc3N2CC)SC1=S	68% (inactive)
N=C1C(c2nc3ccccc3s2)=C(O)CN1NC(=O)c1ccccc1[N+](=O)[O-]	46%
O=C1CC(=C(c2ccccc2)c2ccccc2)C(=O)N1CCCCN1CCN(c2cccc(Cl)c2)CC1	26%
COc1cc(/C=C2\SC(=O)N(c3ccccc3Cl)C2=O)cc([N+](=O)[O-])c1O	61% (inactive)
O=[N+]([O-])c1ccc(N2CCN(c3ccc(F)cc3)CC2)cc1	74% (inactive)
CCSC1=NC(=O)/C(=C2/C=Cc3ccccc3N2CC)S1	100% (inactive)
CCOC(=O)/C(C#N)=C/C=C1\C=Cc2ccccc2N1CC	51%
CCCOc1ccc(C(=O)NNC(=S)NC(=O)c2cc(-c3ccc(Cl)cc3)nc3ccccc23)cc1	93% (inactive)
NS(=O)(=O)c1ccc(N=Nc2c(O)ccc3ccccc23)cc1	57%

SMILES	substrate turnover
N#CC(C#N)=NNc1ccc([N+](=O)[O-])cc1	65% (inactive)
CC(=O)c1ccc(N2CCN(c3ccc(C(F)(F)F)cn3)CC2)cc1	67% (inactive)
Cc1ccc(-n2c(O)c(/C=N/Nc3ccc(S(=O)(=O)N4CCOCC4)cc3[N+](=O)[O-])c3ccccc3c2=O)c(C)c1	56%
Nc1ccc2c(c1)C(=O)c1cc(Cl)c(Cl)cc1-2	47%
O=C1C(=C(c2ccccc2)c2ccccc2)Nc2ccccc21	50%
Cc1ccc(-n2[nH]c(C)c(C=NNc3ccc([N+](=O)[O-])cc3[N+](=O)[O-])c2=O)cc1C	57%
O=[N+]([O-])c1ccccc1NN=Cc1c[nH]c2ccccc12	80% (inactive)
Cc1cc(N(CCO)CCO)ccc1N=Nc1cc(F)ccc1F	69% (inactive)
COC(=O)c1ccccc1NCc1cc(=O)oc2cc(O)c(O)cc12	48%
CC1(C)CCCN(C(=O)c2ccc3c(c2NCCO)C(=O)c2ccccc2C3=O)C1	20%
CCOc1ccc2c(c1)-c1c(ssc1=S)C(C)(C)N2	70% (inactive)
CC1(C)CC(=O)C2=C(C1)c1c(ccc3ccccc13)NC2c1cc([N+](=O)[O-])cc([N+](=O)[O-])c1O (stereo unspecified)	46%
Cc1[nH]n2c(=O)cc(-c3ccc([N+](=O)[O-])cc3)nc2c1-c1ccccc1	90% (inactive)
O=C(NC(C(=O)NN=Cc1cccc2ccccc12)c1n[nH]c(=O)c2ccccc12)c1ccccc1 (stereo unspecified)	49%
C/C(C/C(C)=C1/SC(=S)NC1=O)=C1\SC(=S)NC1=O	22%
CC(=NNc1ccc(S(N)(=O)=O)cc1[N+](=O)[O-])c1ccc2c(c1)OCO2	64% (inactive)
CCOc1ccc(Nc2nnc(SCc3nc4ccccc4c(=O)[nH]3)s2)cc1	69% (inactive)
O=C1c2ccccc2C(=O)c2c1cccc2N1CCCC1	79% (inactive)
CC(=O)C1=C(O)C(=O)N(c2cc(C(C)(C)C)on2)C1c1ccc(Br)cc1 (stereo unspecified)	26%
O=C(O)c1cc(S(=O)(=O)Nc2cc(Cl)ccc2Oc2ccccc2)ccc1O	53%
COc1ccccc1N=Nc1nc(-c2ccccc2)c(-c2ccccc2)[nH]1	79% (inactive)
CCC(=NNc1ccc([N+](=O)[O-])cc1[N+](=O)[O-])c1ccc(O)cc1	67% (inactive)

SMILES	substrate turnover
COc1cc(C=NNc2ccccc2[N+](=O)[O-])cc(OC)c1O	60% (inactive)
O=C(NN1C(=O)/C(=C/c2ccc(O)c([N+](=O)[O-])c2)SC1=S)c1ccccc1Cl	59%
CC(=O)c1c(C)oc2ccc(NS(=O)(=O)c3ccc(O)c(C(=O)O)c3)cc12	23%
O=C(NNc1c2ccccc2nc2ccccc12)c1ccccc1O	56%
CC1(C)CC(=O)C2=C(C1)N=C1c3ccccc3C(=O)C1C2c1ccc(Cl)cc1 (stereo unspecified)	82% (inactive)
Nc1cc([N+](=O)[O-])cc2oc(-c3ccccc3)cc12	89% (inactive)
Nc1nc(-c2ccccc2)c(N=Nc2cccc3ccccc23)s1	95% (inactive)
CN(C)c1ccc(N=Nc2ccc(S(=O)(=O)O)cc2)c2ccccc12	66% (inactive)
CC(C1SC(=S)NC1=O)C1SC(=S)NC1=O (stereo unspecified)	67% (inactive)
CCCCCCCCCCC[C@@H](C[C@@H]1OC(=O)[C@H]1CCCCCC)OC(=O)[C@H](CC(C)C)NC=O	0%
Cc1ccc(Nc2nnc(SCc3nc4ccccc4c(=O)[nH]3)s2)cc1	87% (inactive)
O=S(=O)(O)c1cccc(N=Nc2c(O)ccc3ccccc23)c1	59%
COc1ccc(C2/C=C\CN(C(=O)c3ccc(C)cc3)[C@H](Cc3ccccc3)C(=O)N2Cc2ccc(F)cc2)cc1 (stereo partly specified)	59%
NP(=O)(OCCCCc1ccccc1)Oc1ccccc1Cl (stereo unspecified)	25%
CN(C)c1ccc(N=Nc2ccccc2C(=O)OCC(=O)Nc2ccccc2C(F)(F)F)cc1	67% (inactive)
Cc1oc2cc([N+](=O)[O-])c(O)c([N+](=O)[O-])c2c1C(=O)c1ccc(Br)cc1	62% (inactive)
Nc1nc(-c2ccccc2)c(N=Nc2ccccc2Cl)s1	39%
CCN(CC)c1ccc(N=Nc2nn(C)c(C)c2[N+](=O)[O-])cc1	68% (inactive)
COC(=O)C1=C(C(=O)OC)SC(=C2C(=S)C(C)(C)N(C(=O)C3CC3)c3ccccc32)S1	95% (inactive)
COc1ccccc1C=NNc1ccccc1[N+](=O)[O-]	94% (inactive)
